Results reported in patent US11542492B2 (Celgene CAR LLC, priority 2009, dated 2023).

Assays:
HCV NS3 protease WT 1b = target: T1, HCV NS3 protease WT 1b (Hepatitis C virus genotype 1b, UniProt P26663); test: MALDI MS of intact HCV protease 1b WT incubated with compound; assay type: binding
T1 construct: The single-chain proteolytic domain (NS4A21-32-GSGS-NS33-631) was cloned into pET-14b; His tag (own knowledge of vector pET-14b); made in house; host or cells: Escherichia coli BL21
Description: Intact HCV (protease) 1bWT was incubated for 1 hr at a 10× fold excess of XVI-26 to protein. 3 ul aliquots of the samples were diluted with 10 ul of 0.1% TFA prior to micro C4 ZipTipping directly onto the MALDI target using Sinapinic acid as the desorption matrix (10 mg/mL in 0.1% TFA:Acetonitrile 50:50). […] Due to likely protein misfolding during protein purification, a small portion of the misfolded protein was not modified.
In order to determine whether the modification of the protein occurred at lysine, the pH from the above experiment was increased from 7.4 to 10.0. Because the compound lysine adduct would be an amide any increase in pH would have minimal effect on the modified protein. If however, the modification occurred at cysteine the resultant thioester bond would be unstable and the compound would hydrolyze off the protein.
Intact HCV (protease) 1bWT, C159S, and C159S/K136A were incubated for 1 hr at a 10× fold excess of XVI-26 to protein. 3 μl aliquots of the samples were diluted with 10 μl of 0.1% TFA prior to micro C4 ZipTipping directly onto the MALDI target using Sinapinic acid as the desorption matrix (10 mg/mL in 0.1% TFA:Acetonitrile 50:50).
Intact HCV (protease) WT1b was incubated for 1 hr at a 10× fold excess of XVI-1 (mw=782.87) to protein. 3 μl aliquots of the samples were diluted with 10 μl of 0.1% TFA prior to micro C4 ZipTipping directly onto the MALDI target using Sinapinic acid as the desorption matrix (10 mg/mL in 0.1% TFA:Acetonitrile 50:50). […] Due to some protein misfolding during the purification of the protein, the unfolded portion of the protein can not react with XVI-1.

[1] = target: T2, HCV NS3/4A 1b protease enzyme (wild type) (Hepatitis C virus genotype 1b, UniProt P26663); test: HCV protease FRET assay (IC50_APP), wild type NS3/4A 1b; assay type: biochemical
T2 construct: 10× stocks of NS3/4A protease enzyme from Bioenza (Mountain View, Calif.); purchased Bioenza
In short: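 Wild-type NS3/4A 1b protease with serially diluted compounds (from 50% DMSO stocks); reaction started at once with FRET substrate and followed 60-90 min at ex485/em520. Initial velocities (0 to 15+ min) normalised to no-inhibitor and no-enzyme controls; apparent IC50 from variable-slope log[inhibitor]-response fit.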

C=C[C@@H]1C[C@]1(NC(=O)[C@@H]1C[C@@H](OC(=O)N2Cc3cccc(F)c3C2)CN1C(=O)[C@H](CNC(=O)c1cc(C(C)=O)oc1C)NC(=O)OC(C)(C)C)C(=O)NS(=O)(=O)C1CC1 [XVI-4]
MS_HCVNS3_INTACT_NS3 WT 1b 1 HR (HCV NS3 protease WT 1b): K (≤30% modification) | IC50 [1]: 100 to 1000 nM

C=C[C@@H]1C[C@]1(NC(=O)[C@@H]1C[C@@H](OC(=O)N2Cc3cccc(F)c3C2)CN1C(=O)[C@H](CNC(=O)c1coc(C(C)=O)c1)NC(=O)OC(C)(C)C)C(=O)NS(=O)(=O)C1CC1 [XVI-5]
MS_HCVNS3_INTACT_NS3 WT 1b 1 HR (HCV NS3 protease WT 1b): K (≤30% modification) | IC50 [1]: 100 to 1000 nM

C=C[C@@H]1C[C@]1(NC(=O)[C@@H]1C[C@@H](Oc2nccc3cc(OC)ccc23)CN1C(=O)[C@H](CCC(=O)N1CCC1=O)NC(=O)OC(C)(C)C)C(=O)NS(=O)(=O)C1CC1 [XVI-1, tert-butyl (S)-1-((2S,4R)-2-((1R,2S)-1-(cyclopropylsulfonylcarbamoyl)-2-vinylcyclopropylcarbamoyl)-4-(6-methoxyisoquinolin-1-yloxy)pyrrolidin-1-yl)-1,5-dioxo-5-(2-oxoazetidin-1-yl)pentan-2-ylcarbamate]
conversion of HCV NS3 WT1b (HCV NS3 protease WT 1b; 1 hr, 10× fold excess): ~72% | positive mass shift of HCV 1bWT (HCV NS3 protease WT 1b; 1 hr, 10× fold excess of compound to protein): 755 Da | MS_HCVNS3_INTACT_NS3 WT 1b 1 HR (HCV NS3 protease WT 1b): G (>70% modification) | IC50 [1]: < 1 nM

C=C[C@@H]1C[C@]1(NC(=O)[C@@H]1CC(Oc2nccc3cc(OC)ccc23)CN1C(=O)[C@H](CC(=O)N1C[C@H]2C[C@@H]1C(=O)O2)NC(=O)OC(C)(C)C)C(=O)NS(=O)(=O)C1CC1 (some centres unmarked) [XVI-6]
MS_HCVNS3_INTACT_NS3 WT 1b 1 HR (HCV NS3 protease WT 1b): H (>50% and ≤70% modification) | IC50 [1]: 1 to 10 nM

C=C[C@@H]1C[C@]1(NC(=O)[C@@H]1CC(Oc2nccc3cc(OC)ccc23)CN1C(=O)[C@H](CC(=O)N1C[C@@H]2C[C@H]1C(=O)O2)NC(=O)OC(C)(C)C)C(=O)NS(=O)(=O)C1CC1 (some centres unmarked) [XVI-7]
MS_HCVNS3_INTACT_NS3 WT 1b 1 HR (HCV NS3 protease WT 1b): H (>50% and ≤70% modification) | IC50 [1]: 1 to 10 nM

C=C[C@@H]1C[C@]1(NC(=O)[C@@H]1CC(Oc2nccc3cc(OC)ccc23)CN1C(=O)[C@H](CCC(=O)N1C[C@H]2C[C@@H]1C(=O)O2)NC(=O)OC(C)(C)C)C(=O)NS(=O)(=O)C1CC1 (some centres unmarked) [XVI-8]
MS_HCVNS3_INTACT_NS3 WT 1b 1 HR (HCV NS3 protease WT 1b): G (>70% modification) | IC50 [1]: < 1 nM

C=C[C@@H]1C[C@]1(NC(=O)[C@@H]1CC(Oc2cc(-c3ccccc3)nc3cc(OC)ccc23)CN1C(=O)[C@H](CNC(=O)[C@@H]1CCC(=O)O1)NC(=O)OC(C)(C)C)C(=O)NS(=O)(=O)C1CC1 (stereo partly drawn) [XVI-24, tert-butyl(2S)-1-((2S)-2-((1R,2S)-1-(cyclopropylsulfonylcarbamoyl)-2-vinylcyclopropylcarbamoyl)-4-(7-methoxy-2-phenylquinolin-4-yloxy)pyrrolidin-1-yl)-1-oxo-3-((S)-5-oxotetrahydrofuran-2-carboxamido)propan-2-ylcarbamate]
MS_HCVNS3_INTACT_NS3 WT 1b 1 HR (HCV NS3 protease WT 1b): K (≤30% modification) | IC50 [1]: 1 to 10 nM

C=C[C@@H]1C[C@]1(NC(=O)[C@@H]1CC(OC(=O)N2Cc3cccc(F)c3C2)CN1C(=O)[C@H](CCC(=O)N1C[C@@H]2C[C@H]1C(=O)O2)NC(=O)OC(C)(C)C)C(=O)NS(=O)(=O)C1CC1 (stereo partly drawn) [XVI-17, (5S)-1-((S)-2-(tert-butoxycarbonylamino)-5-oxo-5-((1S,4S)-3-oxo-2-oxa-5-azabicyclo[2.2.1]heptan-5-yl)pentanoyl)-5-((1R,2S)-1-(cyclopropylsulfonylcarbamoyl)-2-vinylcyclopropylcarbamoyl)pyrrolidin-3-yl 4-fluoroisoindoline-2-carboxylate]
MS_HCVNS3_INTACT_NS3 WT 1b 1 HR (HCV NS3 protease WT 1b): G (>70% modification) | IC50 [1]: < 1 nM

C=C[C@@H]1C[C@]1(NC(=O)[C@@H]1CC(Oc2nccc3cc(OC)ccc23)CN1C(=O)[C@H](CCC(=O)N1CC[C@H]2C[C@@H]1C(=O)O2)NC(=O)OC(C)(C)C)C(=O)NS(=O)(=O)C1CC1 (some centres unmarked) [XVI-2]
MS_HCVNS3_INTACT_NS3 WT 1b 1 HR (HCV NS3 protease WT 1b): K (≤30% modification) | IC50 [1]: < 1 nM
